How the values were obtained:
Type in all cases: functional, cell-based
A549 = test: Cytotoxicity against human A549 cells after 3 days; conditions: A549, 72 h
P388 = test: Cytotoxicity against mouse P388 cells after 3 days; conditions: P388, 72 h
HT-29 = test: Cytotoxicity against human HT-29 cells after 3 days; conditions: HT-29, 72 h
SK-MEL-28 = test: Cytotoxicity against human SK-MEL-28 cells after 3 days; conditions: SK-MEL-28, 72 h

Structure (SMILES) | IC50 (A549) [µM] | IC50 (P388) [µM] | IC50 (HT-29) [µM] | IC50 (SK-MEL-28) [µM]
CC1=C(CC[C@@H]2[C@@]3(CC[C@@H]4OC(C)(C)C(=O)CC[C@]42C)CO3)[C@@]2(C)CCC(=O)C(C)(C)C2=C(O)C1=O [SODWANONE G] | 0.2 | 2 | 2 | 2
CC1=C(CC[C@@H]2[C@H](C)CC[C@@H]3OC(C)(C)C(=O)CC[C@]32C)[C@@]2(C)CC[C@@H](O)C(C)(C)[C@@H]2CC1=O [SODWANONE H] | 0.02 | 10.5 | 10.5 | 10.5
CC(C)C(=O)CC[C@@]1(C)[C@H]2CC[C@H](C)[C@]1(CC[C@@]1(C)[C@@H](C)CC[C@@H]3OC(C)(C)[C@]4(O)CC[C@@]31O4)O2 [SODWANONE I] | 20 | 20 | 20 | 20
